The source of these data is patent publication US8435990B2, “Dihydropyrimidone amides as P2X7 modulators” (Roche Palo Alto LLC, priority 2009, dated 2013).

In the experiment the target is T1, human P2X7 (Homo sapiens, UniProt Q99572).
T1 construct: 1321N1 cells stably expressing the full length human P2X7 gene (1321N1-hP2X7)
T1 sequence (Q99572 1-595): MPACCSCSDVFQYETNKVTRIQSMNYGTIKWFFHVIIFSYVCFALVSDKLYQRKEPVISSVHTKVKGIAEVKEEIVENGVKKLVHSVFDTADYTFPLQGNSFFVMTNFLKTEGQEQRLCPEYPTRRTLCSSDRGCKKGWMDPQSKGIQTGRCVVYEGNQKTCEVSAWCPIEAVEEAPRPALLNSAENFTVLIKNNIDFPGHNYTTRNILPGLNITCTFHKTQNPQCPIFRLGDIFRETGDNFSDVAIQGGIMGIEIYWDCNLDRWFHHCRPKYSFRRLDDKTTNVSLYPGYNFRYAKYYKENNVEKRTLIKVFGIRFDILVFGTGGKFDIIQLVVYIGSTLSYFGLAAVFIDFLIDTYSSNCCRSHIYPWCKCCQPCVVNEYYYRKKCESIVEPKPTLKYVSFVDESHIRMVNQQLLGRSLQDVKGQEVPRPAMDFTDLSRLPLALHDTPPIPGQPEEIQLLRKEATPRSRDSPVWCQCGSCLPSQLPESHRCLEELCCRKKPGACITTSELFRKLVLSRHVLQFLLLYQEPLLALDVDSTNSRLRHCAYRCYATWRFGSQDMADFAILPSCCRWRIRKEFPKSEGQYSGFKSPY
Description: P2X7 modulator pIC50 of Table 1 (assay not given; Intracellular Calcium Flux (FLIPR) Assay assumed). The experiment is classed as cell-based. Here is the method: Intracellular Calcium Flux (FLIPR) Assay
Stock solutions of compounds were prepared from powders as a 10 mM DMSO stock solution. These solutions were stored at RT during the two week period of these experiments to prevent freeze-thaw of the DMSO stocks. The DMSO stocks were added to the appropriate assay buffer at a concentration of 10 μM, and then diluted serially to the final concentrations that were tested. No observable precipitate was formed at any time during this process. The aqueous solutions of compounds as well as ATP (Sigma A7699) and BzATP (Sigma B6396) were prepared fresh for each day of experiment.
1321N1 cells stably expressing the full length human P2X7 gene (1321N1-hP2X7) and HEK293 cells stably expressing the full length rat P2X7 gene (HEK293-rP2X7) were obtained from the Roche Cell Culture Facility. 1321N1-hP2X7 cells were grown in Dulbecco's Modified Eagle's Medium (DMEM) high glucose supplemented with 10% FBS and 250 μg/mL G418. HEK293-rP2X7 cells were grown in DMEM/F-12 supplemented with 10% FBS, 1 mM CaCl2, 2 mM MgCl2, 2 mM L-Glutamine and 500 μg/ml G418. Cells were split such that they never became >70% confluent.
On the day prior to the experiment, 1321N1-hP2X7 or HEK293-rP2X7 cells were released into suspension with calcium-free PBS+Versene and washed by centrifugation with calcium-free PBS to remove the Versene. Cells were resuspended in growth medium at a density of 2.5×10^5 cells/mL and seeded into black walled, clear bottom 96 well plates (50,000 cells/well) approximately 18 hr prior to intracellular calcium flux experiments.
On the day of the experiment, plates were washed with FLIPR buffer (calcium- and magnesium-free Hank's Balanced Salt Solution (HBSS) supplemented with 10 mM Hepes, 2.5 mM probenecid and 2 mM calcium chloride) using a BIO-TEK 96 channel plate washer and incubated with […] fluo-3 dye at 37° C. for one hr. The dye was then removed by plate washing and the cells were allowed to equilibrate for 20 min at room temperature with antagonist or vehicle (FLIPR buffer). Agonist (100 μM BzATP final concentration for hP2X7; 5μM BzATP final concentration or rP2X7) was added online with the FLIPR and fluorescence measurements made at 1 sec intervals for 60 sec followed by 3 sec intervals for a further 4 min (5 min total). A final addition of 5 μM ionomycin was made and the maximal BzATP-evoked fluorescence normalized to the maximal ionomycin-evoked fluorescence.

In the case of `COC[C@H](O)Cn1nc(-c2ccc(C)c(NC(=O)C3=CN(C)C(=O)N[C@H]3c3ccc(F)cc3)c2)cc1C` [Compound 24, (S)-4-(4-Fluoro-phenyl)-1-methyl-2-oxo-1,2,3,4-tetrahydro-pyrimidine-5-carboxylic acid {5-[1-((R)-2-hydroxy-3-methoxy-propyl)-5-methyl-1H-pyrazol-3-yl]-2-methyl-phenyl}-amide], the IC50 is 50.7 nM.

For the molecule `COC[C@H](O)Cn1c(=O)cnn(-c2ccc(C)c(NC(=O)C3=CN(C)C(=O)N[C@H]3c3ccc(F)cc3)c2)c1=O` [Compound 25, (S)-4-(4-Fluoro-phenyl)-1-methyl-2-oxo-1,2,3,4-tetrahydro-pyrimidine-5-carboxylic acid {5-[4-((R)-2-hydroxy-3-methoxy-propyl)-3,5-dioxo-4,5-dihydro-3H-[1,2,4]triazin-2-yl]-2-methyl-phenyl}-amide], the IC50 was 91.2 nM.

Regarding `Cc1ccc(-n2ncccc2=O)cc1NC(=O)C1=CN(C)C(=O)N[C@H]1c1ccc(F)cc1` [Compound 26], the IC50 was 20 nM.

Regarding `Cc1ccc(=O)n(-c2ccc(C)c(NC(=O)C3=CN(C)C(=O)N[C@H]3c3ccc(F)cc3)c2)n1` [Compound 27, (S)-4-(4-Fluoro-phenyl)-1-methyl-2-oxo-1,2,3,4-tetrahydro-pyrimidine-5-carboxylic acid [2-methyl-5-(3-methyl-6-oxo-6H-pyridazin-1-yl)-phenyl]-amide], the IC50 was 40.3 nM.

Regarding `Cc1ccc(-c2cncc(=O)[nH]2)cc1NC(=O)C1=CN(C)C(=O)N[C@H]1c1ccc(F)cc1` [Compound 28, (S)-4-(4-Fluoro-phenyl)-1-methyl-2-oxo-1,2,3,4-tetrahydro-pyrimidine-5-carboxylic acid [2-methyl-5-(6-oxo-1,6-dihydro-pyrazin-2-yl)-phenyl]-amide], the IC50 was 153 nM.

In the case of `Cc1cc(Cl)c(OCCO)cc1NC(=O)C1=CN(C)C(=O)N[C@@H]1C1CCCCC1` [Compound 29, (R)-4-Cyclohexyl-1-methyl-2-oxo-1,2,3,4-tetrahydro-pyrimidine-5-carboxylic acid [4-chloro-5-(2-hydroxy-ethoxy)-2-methyl-phenyl]-amide], the IC50 was 54.7 nM.

Turning to `Cc1cc(Cl)c(OCCO)cc1NC(=O)C1=CN(C)C(=O)N[C@H]1c1cccc(F)c1` [Compound 30, (S)-4-(3-Fluoro-phenyl)-1-methyl-2-oxo-1,2,3,4-tetrahydro-pyrimidine-5-carboxylic acid [4-chloro-5-(2-hydroxy-ethoxy)-2-methyl-phenyl]-amide], the IC50 was 20.2 nM.

Turning to `Cc1ccc2[nH]c(=O)ccc2c1NC(=O)C1=CN(C)C(=O)N[C@H]1c1ccc(F)cc1` [Compound 31, (S)-4-(4-Fluoro-phenyl)-1-methyl-2-oxo-1,2,3,4-tetrahydro-pyrimidine-5-carboxylic acid (6-methyl-2-oxo-1,2-dihydro-quinolin-5-yl)-amide], the IC50 was 160 nM.

`Cc1ccc(-c2ccn[nH]c2=O)cc1NC(=O)C1=CN(C)C(=O)N[C@H]1c1ccc(F)cc1` [Compound 32, (S)-4-(4-Fluoro-phenyl)-1-methyl-2-oxo-1,2,3,4-tetrahydro-pyrimidine-5-carboxylic acid [2-methyl-5-(3-oxo-2,3-dihydro-pyridazin-4-yl)-phenyl]-amide]: the IC50 was 21.1 nM.

Consider `Cc1cc(-c2ccc(C)c(NC(=O)C3=CN(C)C(=O)N[C@H]3c3cccc(F)c3)c2)n[nH]1` [Compound 33, (S)-4-(3-Fluoro-phenyl)-1-methyl-2-oxo-1,2,3,4-tetrahydro-pyrimidine-5-carboxylic acid [2-methyl-5-(5-methyl-1H-pyrazol-3-yl)-phenyl]-amide], for which the IC50 is 107 nM.

For the molecule `CCc1c(NC(=O)C2=CN(C)C(=O)N[C@H]2c2ccc(F)cc2)ccc2nc(C)ccc12` [Compound 34, (S)-4-(4-Fluoro-phenyl)-1-methyl-2-oxo-1,2,3,4-tetrahydro-pyrimidine-5-carboxylic acid (5-ethyl-2-methyl-quinolin-6-yl)-amide], the IC50 is 53.7 nM.

For `Cc1ccc(-n2ncc(=O)n(C)c2=O)cc1NC(=O)C1=CN(C)C(=O)N[C@H]1c1ccc(F)cc1` [Compound 35, (S)-4-(4-Fluoro-phenyl)-1-methyl-2-oxo-1,2,3,4-tetrahydro-pyrimidine-5-carboxylic acid [2-methyl-5-(4-methyl-3,5-dioxo-4,5-dihydro-3H-[1,2,4]triazin-2-yl)-phenyl]-amide], the IC50 was 106 nM.

As for `COC[C@@H](O)Cn1nc(-c2ccc(C)c(NC(=O)C3=CN(C)C(=O)N[C@H]3c3ccc(F)cc3)c2)cc1C` [Compound 36, (S)-4-(4-Fluoro-phenyl)-1-methyl-2-oxo-1,2,3,4-tetrahydro-pyrimidine-5-carboxylic acid {5-[1-((S)-2-hydroxy-3-methoxy-propyl)-5-methyl-1H-pyrazol-3-yl]-2-methyl-phenyl}-amide], the IC50 was 140 nM.

With `Cc1ccc(-n2ncc(=O)n(C)c2=O)cc1NC(=O)C1=CN(C)C(=O)N[C@H]1c1cccc(F)c1` [Compound 37, (S)-4-(3-Fluoro-phenyl)-1-methyl-2-oxo-1,2,3,4-tetrahydro-pyrimidine-5-carboxylic acid [2-methyl-5-(4-methyl-3,5-dioxo-4,5-dihydro-3H-[1,2,4]triazin-2-yl)-phenyl]-amide], the IC50 is 36.3 nM.

For the molecule `CCn1nccc(-c2ccc(C)c(NC(=O)C3=CN(C)C(=O)N[C@H]3c3ccc(F)cc3)c2)c1=O` [Compound 38, (S)-4-(4-Fluoro-phenyl)-1-methyl-2-oxo-1,2,3,4-tetrahydro-pyrimidine-5-carboxylic acid [5-(2-ethyl-3-oxo-2,3-dihydro-pyridazin-4-yl)-2-methyl-phenyl]-amide], the IC50 is 14.3 nM.

`COCCN1C=C(C(=O)Nc2cc(OCCO)c(Cl)cc2C)[C@H](c2ccc(F)cc2)NC1=O` [Compound 39, (S)-4-(4-Fluoro-phenyl)-1-(2-methoxy-ethyl)-2-oxo-1,2,3,4-tetrahydro-pyrimidine-5-carboxylic acid [4-chloro-5-(2-hydroxy-ethoxy)-2-methyl-phenyl]-amide]: the IC50 was 43 nM.

`Cc1ccc(-c2ccc(=O)n(C)n2)cc1NC(=O)C1=CN(C)C(=O)N[C@H]1c1ccc(F)cc1` [Compound 40, (S)-4-(4-Fluoro-phenyl)-1-methyl-2-oxo-1,2,3,4-tetrahydro-pyrimidine-5-carboxylic acid [2-methyl-5-(1-methyl-6-oxo-1,6-dihydro-pyridazin-3-yl)-phenyl]-amide]: the IC50 was 72.4 nM.

For `Cc1ccc(-c2ccc(=O)[nH]n2)cc1NC(=O)C1=CN(C)C(=O)N[C@H]1c1ccc(F)cc1` [Compound 41, (S)-4-(4-Fluoro-phenyl)-1-methyl-2-oxo-1,2,3,4-tetrahydro-pyrimidine-5-carboxylic acid [2-methyl-5-(6-oxo-1,6-dihydro-pyridazin-3-yl)-phenyl]-amide], the IC50 is 29.2 nM.

With `Cc1cc2cnn(CCO)c2cc1NC(=O)C1=CN(C)C(=O)N[C@H]1c1ccc(F)cc1` [Compound 42], the IC50 was 14.5 nM.

On to `COC[C@H](O)Cn1nccc(-c2ccc(C)c(NC(=O)C3=CN(C)C(=O)N[C@H]3c3ccc(F)cc3)c2)c1=O` [Compound 43, (S)-4-(4-Fluoro-phenyl)-1-methyl-2-oxo-1,2,3,4-tetrahydro-pyrimidine-5-carboxylic acid {5-[2-((R)-2-hydroxy-3-methoxy-propyl)-3-oxo-2,3-dihydro-pyridazin-4-yl]-2-methyl-phenyl}-amide], for which the IC50 was 29.9 nM.

For the molecule `Cc1ccc(-c2ccnn(C)c2=O)cc1NC(=O)C1=CN(C)C(=O)N[C@H]1c1cccc(F)c1` [Compound 44, (S)-4-(3-Fluoro-phenyl)-1-methyl-2-oxo-1,2,3,4-tetrahydro-pyrimidine-5-carboxylic acid [2-methyl-5-(2-methyl-3-oxo-2,3-dihydro-pyridazin-4-yl)-phenyl]-amide], the half-inhibitory concentration (IC50) is 54.3 nM.

For orientation: IC50 means the concentration at which inhibition is half-maximal.
